# How the values were obtained:
# GFP-Ex1HTT74Q = assay: HTT aggregation assay, PC12 cells expressing GFP-Ex1HTT74Q; type: cell-based; settings: 48 h, 16 nM - 2 µM
# Procedure: PC12 cells stably expressing GFP-tagged exon 1 of HTT with a 74-repeat polyglutamine-expansion (GFP-Ex1HTT74Q) under tetracycline-inducible promoter control [41]were maintained at 37°C and 5% CO2 in RPMI medium (Sigma Aldrich, R8758) supplemented with 10% horse serum (Sigma Aldrich, H1138), 5% fetal bovine serum, 1% Glutamine (Sigma Aldrich, G7513), 1% Pen-Strep (Sigma, P0781), 0.1 mg/mL G418 (ThermoFisher, 10,131,035), and 0.07 mg/mL hygromycin B (ThermoFisher, 10,687,010). Cells were plated at a density of 10,000 per well in 96-well black cycloolefin thin-bottom plates (Perkin Elmer, 6,055,300) coated with collagen IV (Sigma Aldrich, C5533). After 5 h, expression of GFP-Ex1HttQ74 was induced with doxycycline (100 ng/mL; Sigma Aldrich, D3447). After 16 h of induction, compounds (final concentrations 16 nM – 2 µM) were added in fresh medium with doxycycline (100 ng/ml). Final concentration of DMSO (Sigma Aldrich, D8418) was 0.1% in all wells. After 48 h of incubation in the presence of compound, cells were washed once in PBS and fixed with 4% paraformaldehyde (Thermofisher Scientific, 28,908) supplemented with 10 µg/mL Hoechst 33,342 (ThermoFisher Scientific, H3570) for 15 min. […] Image feature extraction was carried out using CellProfiler software. Data aggregation, normalization and distance score calculations were carried out using StratoMineR software.
# PRKD2 = molecular target: T1, PRKD2 (Homo sapiens, UniProt Q9BZL6); assay: KiNativ in-cell kinase binding, PRKD2; set-up: endogenous in cells; host or cells: SH-SY5Y
# T1 sequence (Q9BZL6 1-878): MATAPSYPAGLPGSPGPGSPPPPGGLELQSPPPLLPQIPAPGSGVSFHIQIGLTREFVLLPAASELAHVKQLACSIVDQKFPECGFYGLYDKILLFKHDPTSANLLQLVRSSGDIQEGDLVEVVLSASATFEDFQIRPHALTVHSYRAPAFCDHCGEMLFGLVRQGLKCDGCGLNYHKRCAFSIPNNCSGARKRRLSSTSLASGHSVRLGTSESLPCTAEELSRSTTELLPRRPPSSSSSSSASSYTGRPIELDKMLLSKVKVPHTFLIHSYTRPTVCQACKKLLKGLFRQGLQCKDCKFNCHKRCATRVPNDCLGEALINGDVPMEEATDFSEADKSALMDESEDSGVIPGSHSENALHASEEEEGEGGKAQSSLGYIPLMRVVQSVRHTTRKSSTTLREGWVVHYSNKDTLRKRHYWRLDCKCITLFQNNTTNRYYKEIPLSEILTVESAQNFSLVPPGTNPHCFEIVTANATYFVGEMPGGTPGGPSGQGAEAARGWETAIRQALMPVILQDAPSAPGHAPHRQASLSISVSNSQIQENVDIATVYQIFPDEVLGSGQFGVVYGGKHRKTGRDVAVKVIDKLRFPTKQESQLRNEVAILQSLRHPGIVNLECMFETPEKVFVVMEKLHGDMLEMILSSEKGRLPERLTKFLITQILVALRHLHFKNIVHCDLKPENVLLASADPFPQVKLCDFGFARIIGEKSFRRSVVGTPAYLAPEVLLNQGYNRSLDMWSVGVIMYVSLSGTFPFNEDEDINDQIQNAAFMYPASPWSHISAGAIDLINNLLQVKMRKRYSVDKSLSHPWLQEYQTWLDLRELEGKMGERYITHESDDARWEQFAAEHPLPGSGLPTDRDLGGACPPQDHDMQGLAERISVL
# Source text: As KINOMEscan is an in vitro assay, and as different cell types have variable kinase expression profiles we sought to determine the kinase binding profile in our SH-SY5Y TFEB-relocalization cell model. […] Bound kinases were pulled down and analyzed by mass spectrometry to determine the in situ kinase binding profile for each compound.
# [1] = molecular target: kinases (KINOMEscan panel) (Homo sapiens, UniProt P07947); type: binding
# [2] = molecular target: kinases (KINOMEscan panel) (Homo sapiens, UniProt Q9Y2H1); type: binding
# [3] = molecular target: kinases (KINOMEscan panel) (Homo sapiens, UniProt Q02750); type: binding
# Sequence of kinases (KINOMEscan panel) (Homo sapiens, UniProt Q02750) (Q02750 whole entry): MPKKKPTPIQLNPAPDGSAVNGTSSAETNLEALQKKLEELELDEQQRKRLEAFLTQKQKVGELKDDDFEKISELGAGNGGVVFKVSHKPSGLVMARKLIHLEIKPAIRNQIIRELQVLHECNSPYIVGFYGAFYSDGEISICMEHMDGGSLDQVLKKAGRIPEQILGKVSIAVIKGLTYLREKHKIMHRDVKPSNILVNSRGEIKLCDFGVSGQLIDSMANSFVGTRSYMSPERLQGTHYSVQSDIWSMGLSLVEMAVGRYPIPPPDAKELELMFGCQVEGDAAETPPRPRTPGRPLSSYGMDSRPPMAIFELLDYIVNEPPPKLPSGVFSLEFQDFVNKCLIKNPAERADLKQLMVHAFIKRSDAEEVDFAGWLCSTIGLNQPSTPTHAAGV
# [4] = molecular target: kinases (KINOMEscan panel) (Homo sapiens, UniProt O14733); type: binding
# [5] = molecular target: kinases (KINOMEscan panel) (Homo sapiens, UniProt O75582); type: binding; settings: NEW KINOMEscan
# Sequence of kinases (KINOMEscan panel) (Homo sapiens, UniProt O75582) (O75582 whole entry): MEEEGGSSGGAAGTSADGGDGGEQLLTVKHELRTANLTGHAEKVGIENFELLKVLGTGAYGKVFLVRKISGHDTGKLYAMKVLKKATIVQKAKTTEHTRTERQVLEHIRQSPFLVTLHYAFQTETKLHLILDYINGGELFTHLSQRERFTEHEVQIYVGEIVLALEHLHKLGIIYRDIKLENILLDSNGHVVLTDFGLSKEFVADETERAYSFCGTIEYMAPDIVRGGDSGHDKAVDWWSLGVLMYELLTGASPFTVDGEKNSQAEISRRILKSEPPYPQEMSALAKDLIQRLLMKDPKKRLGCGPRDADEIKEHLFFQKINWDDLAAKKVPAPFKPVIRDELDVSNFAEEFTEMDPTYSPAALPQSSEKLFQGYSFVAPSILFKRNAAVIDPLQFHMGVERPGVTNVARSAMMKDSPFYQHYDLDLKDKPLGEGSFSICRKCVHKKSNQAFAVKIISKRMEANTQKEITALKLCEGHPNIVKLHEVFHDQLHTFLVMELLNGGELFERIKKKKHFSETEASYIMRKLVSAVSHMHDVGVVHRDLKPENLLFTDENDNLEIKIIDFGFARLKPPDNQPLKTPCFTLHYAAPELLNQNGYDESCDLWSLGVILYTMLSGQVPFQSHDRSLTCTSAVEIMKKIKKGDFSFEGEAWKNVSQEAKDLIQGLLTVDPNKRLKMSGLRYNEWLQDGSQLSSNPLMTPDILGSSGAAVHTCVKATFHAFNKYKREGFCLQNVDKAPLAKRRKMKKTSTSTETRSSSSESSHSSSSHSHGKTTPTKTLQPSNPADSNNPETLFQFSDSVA
# [6] = molecular target: kinases (KINOMEscan panel) (Homo sapiens, UniProt P45983); type: binding
# [7] = molecular target: kinases (KINOMEscan panel) (Homo sapiens, UniProt P04629); type: binding
# Sequence of kinases (KINOMEscan panel) (Homo sapiens, UniProt P04629) (P04629 33-796): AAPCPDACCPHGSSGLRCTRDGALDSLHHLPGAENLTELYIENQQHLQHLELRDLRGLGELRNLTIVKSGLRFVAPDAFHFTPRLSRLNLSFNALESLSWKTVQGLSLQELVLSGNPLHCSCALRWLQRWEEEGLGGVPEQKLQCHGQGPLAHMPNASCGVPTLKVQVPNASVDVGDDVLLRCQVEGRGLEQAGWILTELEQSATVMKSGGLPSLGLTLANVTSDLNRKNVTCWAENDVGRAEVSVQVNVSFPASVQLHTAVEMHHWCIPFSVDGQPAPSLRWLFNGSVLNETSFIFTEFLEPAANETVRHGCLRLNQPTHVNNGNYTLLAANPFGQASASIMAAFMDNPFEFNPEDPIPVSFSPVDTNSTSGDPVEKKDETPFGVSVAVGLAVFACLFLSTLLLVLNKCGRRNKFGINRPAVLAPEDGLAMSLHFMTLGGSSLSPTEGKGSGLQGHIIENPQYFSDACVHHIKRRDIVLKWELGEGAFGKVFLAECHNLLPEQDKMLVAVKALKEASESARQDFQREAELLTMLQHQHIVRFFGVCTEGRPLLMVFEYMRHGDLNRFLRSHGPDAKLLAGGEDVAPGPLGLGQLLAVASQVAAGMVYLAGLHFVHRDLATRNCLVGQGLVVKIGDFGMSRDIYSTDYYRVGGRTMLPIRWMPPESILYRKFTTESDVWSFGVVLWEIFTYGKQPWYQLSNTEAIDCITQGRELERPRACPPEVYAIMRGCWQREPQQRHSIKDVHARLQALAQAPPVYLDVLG
# [8] = molecular target: kinases (KINOMEscan panel) (Homo sapiens, UniProt Q9P289); type: binding
# Sequence of kinases (KINOMEscan panel) (Homo sapiens, UniProt Q9P289) (Q9P289 whole entry): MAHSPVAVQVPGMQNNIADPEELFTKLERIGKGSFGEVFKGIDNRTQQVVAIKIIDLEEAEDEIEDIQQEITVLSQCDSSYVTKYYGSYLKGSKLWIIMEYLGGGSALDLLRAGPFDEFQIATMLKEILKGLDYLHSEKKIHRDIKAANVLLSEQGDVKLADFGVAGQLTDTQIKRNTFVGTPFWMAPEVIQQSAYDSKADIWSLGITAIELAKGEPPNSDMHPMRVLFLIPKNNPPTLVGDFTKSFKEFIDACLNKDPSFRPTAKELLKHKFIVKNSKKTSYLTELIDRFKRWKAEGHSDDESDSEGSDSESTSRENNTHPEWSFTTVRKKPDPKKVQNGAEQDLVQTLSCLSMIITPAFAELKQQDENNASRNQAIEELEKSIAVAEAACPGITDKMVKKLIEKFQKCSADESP
# [9] = molecular target: kinases (KINOMEscan panel) (Homo sapiens, UniProt Q9UK32); type: binding
# Sequence of kinases (KINOMEscan panel) (Homo sapiens, UniProt Q9UK32) (Q9UK32 whole entry): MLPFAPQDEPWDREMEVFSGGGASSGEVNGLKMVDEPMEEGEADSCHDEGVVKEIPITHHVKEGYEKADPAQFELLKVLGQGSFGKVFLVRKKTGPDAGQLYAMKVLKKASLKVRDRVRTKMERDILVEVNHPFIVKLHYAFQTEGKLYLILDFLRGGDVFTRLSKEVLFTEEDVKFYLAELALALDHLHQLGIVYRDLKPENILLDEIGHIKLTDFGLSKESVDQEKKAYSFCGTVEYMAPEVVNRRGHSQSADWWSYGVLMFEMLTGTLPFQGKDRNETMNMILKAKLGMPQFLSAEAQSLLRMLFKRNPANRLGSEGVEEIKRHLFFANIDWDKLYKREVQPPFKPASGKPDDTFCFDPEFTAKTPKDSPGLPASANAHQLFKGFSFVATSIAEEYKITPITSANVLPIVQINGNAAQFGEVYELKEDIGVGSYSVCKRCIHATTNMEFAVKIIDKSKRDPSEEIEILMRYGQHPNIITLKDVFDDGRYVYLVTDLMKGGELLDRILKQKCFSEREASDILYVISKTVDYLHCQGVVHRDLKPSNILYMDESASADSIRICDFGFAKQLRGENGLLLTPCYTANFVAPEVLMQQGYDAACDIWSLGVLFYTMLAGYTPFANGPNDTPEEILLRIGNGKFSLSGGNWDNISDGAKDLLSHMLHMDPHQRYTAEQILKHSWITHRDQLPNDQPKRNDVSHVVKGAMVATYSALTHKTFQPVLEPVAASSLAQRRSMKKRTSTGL
# [10] = molecular target: kinases (KINOMEscan panel) (Homo sapiens, UniProt Q02763); type: binding
# [11] = molecular target: kinases (KINOMEscan panel) (Homo sapiens, UniProt Q13163); type: binding
# [12] = molecular target: kinases (KINOMEscan panel) (Homo sapiens, UniProt Q16620); type: binding
# Sequence of kinases (KINOMEscan panel) (Homo sapiens, UniProt Q16620) (Q16620 32-822): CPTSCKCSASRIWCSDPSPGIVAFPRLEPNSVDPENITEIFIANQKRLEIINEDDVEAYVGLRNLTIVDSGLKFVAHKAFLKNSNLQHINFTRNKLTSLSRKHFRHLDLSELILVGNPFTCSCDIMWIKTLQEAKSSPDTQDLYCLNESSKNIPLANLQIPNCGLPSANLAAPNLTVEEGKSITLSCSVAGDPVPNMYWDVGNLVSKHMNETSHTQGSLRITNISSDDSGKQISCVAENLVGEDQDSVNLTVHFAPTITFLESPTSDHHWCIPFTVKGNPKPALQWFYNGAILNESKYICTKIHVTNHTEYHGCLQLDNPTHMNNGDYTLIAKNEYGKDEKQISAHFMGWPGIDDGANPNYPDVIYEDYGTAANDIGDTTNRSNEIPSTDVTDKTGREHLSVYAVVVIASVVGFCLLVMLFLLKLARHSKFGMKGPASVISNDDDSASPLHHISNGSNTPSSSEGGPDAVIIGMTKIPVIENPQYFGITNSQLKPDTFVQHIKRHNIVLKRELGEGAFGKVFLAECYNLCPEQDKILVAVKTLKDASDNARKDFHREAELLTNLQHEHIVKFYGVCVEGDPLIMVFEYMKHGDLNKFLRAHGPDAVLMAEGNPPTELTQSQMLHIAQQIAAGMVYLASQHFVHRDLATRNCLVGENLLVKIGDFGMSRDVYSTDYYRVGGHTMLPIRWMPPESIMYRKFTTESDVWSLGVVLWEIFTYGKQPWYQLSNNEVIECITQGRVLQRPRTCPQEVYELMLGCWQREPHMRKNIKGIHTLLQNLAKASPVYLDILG
# [13] = molecular target: kinases (KINOMEscan panel) (Homo sapiens, UniProt Q9NSY1); type: binding
# [14] = molecular target: kinases (KINOMEscan panel) (Homo sapiens, UniProt Q16288); type: binding
# [15] = molecular target: kinases (KINOMEscan panel) (Homo sapiens, UniProt Q8NEB9); type: binding
# [16] = molecular target: kinases (KINOMEscan panel) (Homo sapiens, UniProt Q15349); type: binding
# Sequence of kinases (KINOMEscan panel) (Homo sapiens, UniProt Q15349) (Q15349 whole entry): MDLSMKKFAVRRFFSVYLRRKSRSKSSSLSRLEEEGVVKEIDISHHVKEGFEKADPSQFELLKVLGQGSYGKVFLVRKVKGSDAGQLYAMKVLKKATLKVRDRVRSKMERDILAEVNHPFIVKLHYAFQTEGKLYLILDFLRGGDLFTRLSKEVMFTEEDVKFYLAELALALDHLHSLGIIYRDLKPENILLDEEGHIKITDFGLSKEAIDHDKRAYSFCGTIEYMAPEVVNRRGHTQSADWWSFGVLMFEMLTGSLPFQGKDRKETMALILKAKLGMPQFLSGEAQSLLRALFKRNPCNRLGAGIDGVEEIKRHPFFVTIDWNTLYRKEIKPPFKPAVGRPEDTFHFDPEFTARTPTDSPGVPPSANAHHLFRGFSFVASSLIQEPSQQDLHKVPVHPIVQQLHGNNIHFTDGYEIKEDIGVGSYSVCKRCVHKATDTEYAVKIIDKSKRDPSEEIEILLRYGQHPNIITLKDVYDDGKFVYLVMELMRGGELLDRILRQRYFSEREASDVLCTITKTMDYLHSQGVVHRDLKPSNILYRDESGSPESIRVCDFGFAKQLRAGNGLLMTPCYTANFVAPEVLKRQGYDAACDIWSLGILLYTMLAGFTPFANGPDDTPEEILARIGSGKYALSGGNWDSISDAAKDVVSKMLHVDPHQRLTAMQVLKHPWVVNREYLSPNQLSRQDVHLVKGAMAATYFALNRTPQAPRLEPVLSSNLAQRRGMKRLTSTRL
# [17] = molecular target: kinases (KINOMEscan panel) (Homo sapiens, UniProt P45985); type: binding
# Sequence of kinases (KINOMEscan panel) (Homo sapiens, UniProt P45985) (P45985 whole entry): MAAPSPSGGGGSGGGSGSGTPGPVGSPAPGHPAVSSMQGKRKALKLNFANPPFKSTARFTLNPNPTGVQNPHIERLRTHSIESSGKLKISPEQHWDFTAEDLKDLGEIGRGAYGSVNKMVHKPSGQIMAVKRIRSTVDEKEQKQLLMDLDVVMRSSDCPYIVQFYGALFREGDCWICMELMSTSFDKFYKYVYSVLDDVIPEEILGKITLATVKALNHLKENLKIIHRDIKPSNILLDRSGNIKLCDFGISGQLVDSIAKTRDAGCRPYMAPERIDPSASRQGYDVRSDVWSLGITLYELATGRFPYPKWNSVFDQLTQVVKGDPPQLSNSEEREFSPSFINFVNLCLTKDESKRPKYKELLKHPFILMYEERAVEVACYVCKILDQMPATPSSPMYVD
smiles,measurement,setting,value
Cc1cccc(-c2nc(Nc3ccc4ncsc4c3)c3ccccc3n2)n1 [NK140],HTT fluorescent aggregates / cells bearing aggregates (in words),GFP-Ex1HTT74Q,no reduction in fluorescent aggregates
same,inhibition at 2 µM,"PRKD2; 2µM, SH-SY5Y cells, Labeling Site Lys1, […]",51.7%
same,KiNativ binding of PRKD2 (in words),PRKD2; SH-SY5Y cells treated 2 h,bound
Cc1cccc(-c2nc(N(C)c3ccc4ncsc4c3)c3ccccc3n2)n1 [NK-161],KINOMEscan YES1/YES,[1],0
same,KINOMEscan STK38L/NDR2,[2],0
same,KINOMEscan MAP2K1/MEK1,[3],32
same,KINOMEscan MAP2K7/MKK7,[4],0
same,KINOMEscan RPS6KA5(Kin.Dom.1-N-terminal),[5],21
same,KINOMEscan RPS6KA5(Kin.Dom.2-C-terminal),[5]; kinase RPS6KA5(Kin.Dom.2-C-terminal),0
same,KINOMEscan MAPK8/JNK1,[6],0
same,KINOMEscan NTRK1/TRKA,[7],22
same,KINOMEscan STK26/MST4,[8],5
same,KINOMEscan RPS6KA6/RSK4(Kin.Dom.1-N-terminal),[9],8
same,KINOMEscan RPS6KA6/RSK4(Kin.Dom.2-C-terminal),[9],4
same,KINOMEscan TEK/TIE2,[10],13
same,KINOMEscan MAP2K5/MEK5,[11],0
same,KINOMEscan NTRK2/TRKB,[12],45
same,KINOMEscan BMP2K/BIKE,[13],12
same,KINOMEscan NTRK3/TRKC,[14],29
same,KINOMEscan PIK3C3/VPS34,[15],0
same,KINOMEscan RPS6KA2/RSK3(Kin.Dom.1-N-terminal),[16],0
same,KINOMEscan RPS6KA2/RSK3(Kin.Dom.2-C-terminal),[16],16
same,KINOMEscan MAP2K4/MEK4,[17],0

# Source: PMC9851200, “Multiparameter phenotypic screening for endogenous TFEB and TFE3 translocation identifies novel chemical series modulating lysosome function” (Autophagy, 2022)
